# Measurements published in patent US20230346969A1, “INTERMEDIATE FOR PREPARING ANTIBODY-DRUG CONJUGATE (ADC), PREPARATION METHOD THEREFOR, AND USE THEREOF” (priority 2020, published 2023).
# What was measured:
# COLO205 cells = assay: COLO205 mouse transplanted tumor model; assay type: in vivo, BALB/c nu/nu mice; details: COLO205 xenograft, intraperitoneal, days 7, 11, 15, 19; p<0.001 vs hRS7-VK-SN38
# From the text: (§1) Five-week-old female athymic BALB/c nu/nu mice were purchased from Charles River Company (Shanghai, China), and mice were randomly divided into 5-6 mice/group. Animal handling and procedures were approved and performed in accordance with the requirements of the Institutional Animal Care and Use Committee (IACUC) of Shanghai Institute of Materia Medica, Chinese Academy of Sciences. All models were inoculated subcutaneously on the side of mice. BXPC-3, HCC1806 and NCIH1688 cells were established by injecting and homogenizing 5 × 10^6 cells in Matrigel matrix. COLO205 cells were established by injecting and suspending 1 × 10^7 cells in Matrigel matrix. […] The percentage of inhibition was calculated by the following formula: (1-average tumor volume of the treatment group/average tumor volume of the control group)×100%. Toxicity of the different treatment groups was assessed by monitoring weight loss.
# Mice inoculated with COLO205 cells (n = 6 per group) were treated with ADC or control drug on days 7, 11, 15, and 19, and tumor volume was measured two or three times a week. Statistical significance between treatment and control groups was assessed using a two-tailed t-test. ***P<0.001, comparing hRS7-VK-PTX with hRS7; p<0.001, comparing hRS7-VK-PTX with hRS7-VK-SN38, data = mean ± SD, the results are shown in FIG. 1c.
# [1] = Dose tolerability, single intravenous dose acute toxicity; assay type: in vivo; details: BALB/c mice
# Description: Dose tolerability assay was performed in BALB/c mice (3 mice per dose). The drug was given in a single intravenous dose. The injection doses of hRS7-VK-PTX were 60, 80 and 100 mg/kg, and the injection doses of hRS7-VK-MMAE were 60 and 80 mg/kg, respectively. Toxicity was assessed by observing mouse behavior, weight loss and survival. The weight change rate (%) was calculated as: (body weight - body weight before treatment)/(body weight before treatment) × 100%.
# The safety of relatively high doses of hRS7-VK-PTX in BALB/c mice was studied by an acute toxicity experiment with single intravenous administration in mice.
# [2] = tested on: MDA-MB-231 or CFPAC-1 cells; assay: Detection of ADC endocytosis rate by flow cytometry; assay type: cell-based; details: Trop-2 expressing cells, 5 µg/mL ADC, 37° C.
# Description: To assess the endocytosis rate of ADC, MDA-MB-231 or CFPAC-1 cells (1 × 10^6) were incubated with 5 µg/mL of ADC samples in a staining medium for 30 min on ice, and washed twice, and then it was placed in a fresh complete medium. Internalization was initiated in a humidified chamber at 37° C. After the incubation, cells were washed twice with an ice-cold staining medium and then stained with goat anti-human IgG-PE. Cells were analyzed by flow cytometry to detect the level of ADC remaining on the surface.
# The internalization rate of ADC may affect its inhibitory efficiency against tumor cells.
# [3] = tested on: tumor cell lines with different expression levels of Trop-2; assay: Cell viability assay (CCK-8), comparison across the cell panel; assay type: cell-based
# Description: Cell viability was determined using Cell Counting Kit 8 (CCK-8). Cells were seeded into 96-well plates at 3000-10000 cells/well. After incubation overnight, drugs were added at different concentrations. Plates were incubated in a 5% CO2, 37° C. humidified chamber for 96 hours. CCK8 reagent was added thereto and the plates were placed back to the incubator until the absorbance at 450 nm of untreated control cells was greater than 1.0. Growth inhibition was measured as the percent growth relative to untreated cells. Dose response curve was generated from the mean values of two or three tests, and IC50 values were calculated using Prism GraphPad software.
# The anti-tumor efficacy of different payloads on different tumor cell lines was detected by CCK-8, and the results are shown in FIG. 5.
# HCC1806 cells = assay: HCC1806 mouse transplanted tumor model; assay type: in vivo, BALB/c nu/nu mice
# From the text: as §1
# Mice inoculated with HCC1806 cells (n = 6 per group) were treated on days 7, 10 and 14. Tumors were measured two or three times per week. On day 20, statistical significance between treatment and control groups was assessed using a two-tailed t-test. *P <0.05, comparing hRS7-VK-PTX treatment group with hRS7-VK-SN38 treatment group, data = mean ± SD, the results are shown in FIG. 7b.
# SKBR3 cells = assay: Endocytosis and intracellular localization of ADC by confocal microscopy; assay type: cell-based; details: 5 µg/mL, 37° C., 45 or 90 min
# Description: SKBR3 cells were incubated with 5 µg/mL of hRS7-VK-PTX or hRS7-VK-SN38 in a 24-well plate (1 × 10^4 cells/well) in a 5% CO2, 37° C. incubator for 45 or 90 min. Cells were washed once with PBS, fixed and permeabilized. After washing, cells were stained with 488 goat anti-human IgG (H&L) or 555 anti-rabbit IgG F(ab′)2 fragment. Nuclear DNA was stained with 4′,6-dimidyl-2-phenylindole (DAPI). Immunofluorescence was recorded with an Olympus BK71 confocal microscope.
# SKBR3 cells were incubated with ADC molecules at 37° C. for 45 or 90 min. Unbound ADC was removed by washing cells in a culture medium, then the cells were fixed and permeabilized. The marker proteins LAMP-1, GM130 and clathrin were detected with their respective antibodies and a secondary antibody conjugated to Alex®555 (red). Anti-Trop-2 ADC was detected with DyLight®488-conjugated secondary antibody (green). DAPI was used to stain nuclear DNA (blue).
# [4] = Adverse effects and weight loss of mice treated in the efficacy models; assay type: in vivo, BALB/c nu/nu mice; details: mouse, in vivo
# From the text: Five-week-old female athymic BALB/c nu/nu mice were purchased from Charles River Company (Shanghai, China), and mice were randomly divided into 5-6 mice/group. Animal handling and procedures were approved and performed in accordance with the requirements of the Institutional Animal Care and Use Committee (IACUC) of Shanghai Institute of Materia Medica, Chinese Academy of Sciences. All models were inoculated subcutaneously on the side of mice. BXPC-3, HCC1806 and NCIH1688 cells were established by injecting and homogenizing 5 × 10^6 cells in Matrigel matrix. COLO205 cells were established by injecting and suspending 1 × 10^7 cells in Matrigel matrix. After the tumor volume reached about 200 mm^3, the tumor-bearing mice were randomly divided into treatment groups and a control group according to the tumor volume. Each drug was administered intraperitoneally. Mice were injected at doses of 3 or 10 mg/kg (10 mL/kg). Tumor volume was defined as length × ½ × width × width. The percentage of inhibition was calculated by the following formula: (1-average tumor volume of the treatment group/average tumor volume of the control group)×100%. Toxicity of the different treatment groups was assessed by monitoring weight loss.
substance,measurement,setting,value
hRS7-VK-PTX,inhibition of transplanted tumor,COLO205 cells,more effective than hRS7-VK-SN38
same,toxicity or weight loss compared with placebo,[1]; single 100 mg/kg intravenous dose,no significant toxicity or weight loss
same,maximum tolerated dose (MTD),"[1]; single intravenous dose, highest dose 100 mg/kg",not reached
same,internalization rate,[2],faster than hRS7-VK-MMAE and hRS7-VK-SN38
same,efficacy of ADC in tumor cell lines with low expression of Trop-2,"[3]; COL0205, MDA-MB-231, SK - MES-1, Capan-1, NCIH2452",more effective than hRS7-VK-MMAE and hRS7-VK-SN38
same,inhibitory effect in PTX-resistant tumor cell lines,"[3]; SKBR3, CFPAC-1, MDA-MB-231 and COLO205",good inhibitory effect
same,tumor inhibitory effect compared with PTX,"HCC1806 cells; HCC1806 model, 30 mg/kg (1.3 mg/kg PTX equivalent)",comparable to that of 10 mg/kg of PTX
same,inhibition of transplanted tumor,"HCC1806 cells; HCC1806 xenograft, intraperitoneal, days 7, 10, 14, P<0.05 vs hRS7-VK-SN38 on day 20",more effective than hRS7-VK-SN38
same,internalization and intracellular localization,SKBR3 cells,co-localization of hRS7-VK-PTX molecule with lysosomes and clathrin heavy chain
same,adverse effects or weight loss in treated mice,[4],did not cause adverse effects or weight loss
